Where two headings read alike, the source gives them in different places.
Assays:
[1] = target: dihydrofolate reductase (DHFR) (UniProt P00374); test: DHFR kinetic assay, spectrophotometric oxidation of NADH at 340 nm; assay type: biochemical
Procedure: For DHFR analysis, the compounds were screened using a kinetic protocol that spectrophotometrically evaluates oxidation of NADH.
Stock solutions of each of the reagents were prepared in the following concentrations. Dilutions of the stock solutions were prepared prior to running the assay in the concentrations indicated below. H2 folate was dissolved in DMSO to about 10 mM and then diluted with water to a concentration of 0.1 mM.
The DHFR reaction was monitored at 340 nm prior to and after addition of the inhibitor to detect background reaction with the inhibitor. Solutions of 100 μl of the inhibitors in DMSO were prepared to provide a final DMSO concentration of 5% of the total assay volume. These solutions were incubated for 6 minutes at 25° C. in a 992 μl of a solution containing 0.1 M Tris-HCl, pH 7.0, 150 mM KCl, 5 μM H2 folate, and 52 μM NADH. The oxidation reaction was then initiated with 8 μl of DHFR (0.047 mg/ml). After the enzyme was added, the solution was mixed for 20 seconds, and the reaction was run for 10 minutes. After a 50 second lag, the samples were read in a Cary spectrophotometer at 340 nm. Reading of the samples was continued until 300 seconds. Cuvette #1 always contained the control reaction (no inhibitor), and cuvette #2 always contained the positive control reaction in which Cibacron Blue at 3 μM was substituted for inhibitor to yield 50 to 70% inhibition. […]

[2] = target: T1, alcohol dehydrogenase (ADH) (Saccharomyces cerevisiae, UniProt P00330); test: ADH kinetic assay, spectrophotometric reduction of NAD+ at 340 nm; assay type: biochemical, Bakers Yeast
T1 construct: 10 μl of ADH from Bakers Yeast; host or cells: baker's yeast
T1 sequence (P00330 1-348): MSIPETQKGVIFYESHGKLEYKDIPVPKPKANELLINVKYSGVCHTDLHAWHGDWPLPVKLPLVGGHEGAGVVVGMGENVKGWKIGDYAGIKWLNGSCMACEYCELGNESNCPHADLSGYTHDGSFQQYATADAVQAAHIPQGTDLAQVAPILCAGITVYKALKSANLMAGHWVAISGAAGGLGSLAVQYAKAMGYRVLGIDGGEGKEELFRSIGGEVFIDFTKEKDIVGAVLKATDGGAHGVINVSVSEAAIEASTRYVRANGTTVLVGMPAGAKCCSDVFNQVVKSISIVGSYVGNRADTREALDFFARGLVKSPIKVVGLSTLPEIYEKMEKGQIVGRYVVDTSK
Procedure: For ADH analysis, the compounds were screened using a kinetic protocol that spectrophotometrically evaluates reduction of NAD+.
(§1) Stock solutions of each of the reagents were prepared in the following concentrations. Dilutions of the stock solutions were prepared prior to running the assay in the concentrations indicated below.
The ADH reaction was monitored at 340 nm prior to and after addition of the inhibitor to detect background reaction with the inhibitor. Solutions of 100 μl of the inhibitors in DMSO were prepared to provide a final DMSO concentration of 5% of the total assay volume. These solutions were incubated for 6 minutes at 25° C. in a 990 μl of a solution containing 0.1 M HEPES, pH 8.0, 80 μM NAD+, and 130 mM of ethanol. The reaction was then initiated with 10 μl of ADH from Bakers Yeast ([…]; 1:400 dilution of 1.0 mg/ml). After the enzyme was added, the solution was mixed for 20 seconds, and the reaction was run for 10 minutes. After a 50 second lag, the samples were read in a Cary spectrophotometer at 340 nm. Reading of the samples was continued until 300 seconds. Cuvette #1 contained the control reaction (no inhibitor), and cuvette #2 contained the positive control reaction in which Cibacron Blue at 15.5 μM was substituted for inhibitor to yield 50 to 60% inhibition. The substrate was kept at a level at least 10 times the Km. The final concentration of […] was about 2.5 mM.
Where only a simple read was desired, as in the case of NAD+ concentration determination, 13 μl (10 M stock) of ethanol was used to drive the reaction, and 10 μl of pure enzyme (1 mg/ml) was used. NAD+was soluble at 2 mM, which allowed the concentration determination step to be skipped. In this situation, the procedure was as follows. All of the ingredients except for the enzyme were mixed together. The solution was mixed well and the absorbance at 340 nm read. The enzyme was added and read again at OD 340 after the absorbance stopped changing, generally 10 to 15 minutes after the enzyme was added.

[3] = target: inosine-5′-monophosphate dehydrogenase (IMPDH); test: IMPDH kinetic assay, spectrophotometric reduction of NAD+ at 340 nm; assay type: biochemical; settings: Example 13 oxidoreductase panel (FIG. 7)
Procedure: For IMPDH analysis, the compounds were screened using a kinetic protocol that spectrophotometrically evaluates reduction of NAD+.
as §1
The IMPDH reaction was monitored at 340 nm prior to and after addition of the inhibitor to detect background reaction with the inhibitor. Solutions of 100 μl of the inhibitors in DMSO were prepared to provide a final DMSO concentration of 5% of the total assay volume. These solutions were incubated for 6 minutes at 37° C. in a 992 μl of a solution containing 0.1 M Tris-HCl, pH 8.0, 0.25 M KCl, 0.3% glycerol, 30 μM NAD+, and 600 μM IMP (inosine monophosphate). The reaction was then initiated with 8 μl of IMPDH (0.75 μg/ml). After the enzyme was added, the solution was mixed for 20 seconds, and the reaction was run for 10 minutes. After a 50 second lag, the samples were read in a Cary spectrophotometer at 340 nm. Reading of the samples was continued until 300 seconds. Cuvette #1 contained the control reaction (no inhibitor), and cuvette #2 contained the positive control reaction in which Cibacron Blue was substituted for inhibitor. The substrate was kept at a level at least 10 times the Km.

Sequence of dihydrofolate reductase (DHFR) (P00374 whole entry): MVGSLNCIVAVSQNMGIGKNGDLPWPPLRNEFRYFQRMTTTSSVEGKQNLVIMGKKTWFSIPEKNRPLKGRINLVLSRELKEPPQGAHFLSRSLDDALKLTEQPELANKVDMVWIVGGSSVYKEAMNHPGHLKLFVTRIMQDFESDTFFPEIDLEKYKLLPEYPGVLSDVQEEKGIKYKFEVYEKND

| Compound | IC50 ([1]; Example 13 oxidoreductase panel (FIG. 7); read-out: IC50 for DHFR) [µM] | IC50 [2] [µM] | IC50 [3] [µM] | IC50 ([1]; read-out: IC50 for DHFR; Example 13 oxidoreductase panel (FIG. 7)) [µM] |
| --- | --- | --- | --- | --- |
| O=C(O)c1ccc(-c2ccc(-c3nc4ccccc4[nH]3)o2)cc1 [compound 6b, 4-[5-(1H-benzoimidazol-2-yl)-furan-2-yl] benzoic acid] | > 40 | 49 | 22 | – |
| O=C(O)c1ccc(-c2ccc(-c3nc4cc([N+](=O)[O-])ccc4[nH]3)o2)cc1 [compound 6d, 4-[5-(5-nitro-1H-benzoimidazol-2-yl)-furan-2-yl]-benzoic acid] | – | > 150 | 15.8 | 48.5 |

From patent US20030104473A1, “Common ligand mimics: benzimidazoles” (priority 2001, published 2003)
